The text below walks through data of patent US20230157996A1, “SMALL-MOLECULE INHIBITOR TARGETING EB VIRUS NUCLEAR ANTIGEN PROTEIN, PREPARATION METHOD AND USE THEREOF” (priority 2020, published 2023).

This experiment concerns C666-1 cells. Description: C666-1 cell viability single concentration (50 μM) inhibition rate (Resazurin). The note with it: 50 μM compound, 72 hours, C666-1 cells; for inhibition at 50 µM: Homo sapiens, C6661, 72 h, read-out: C666-1 cell viability single concentration (50 μM) inhibition rate, Ratio* (Inh %). The experiment is classed as cell-based. The gist of the method:
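Resazurin fluorescence (560/590 nm, 3 h development) gave the proliferation inhibition rate, normalised to DMSO-treated and cell-free blank wells. Compound was tested at a single 50 μmol/L final concentration on C666-1 cells for 72 h at 37° C, with duplicate wells, after 24 h seeding.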
A general note: The colour change of resazurin is a common sign of viable cells or microbes.

As for `COC(=O)c1cccc(N2CC(Oc3ccc(Oc4ccccc4)cc3)C2)c1-n1cccc1` [Example 111, Methyl 3-(3-(4-phenoxyphenoxy)azetidin-1-yl)-2-(1H-pyrrol-1-yl)benzoate], the inhibition at 50 µM was under 10%.
With `O=C(O)c1cccc(N2CC(Oc3ccc(Oc4ccccc4)cc3)C2)c1-n1cccc1` [Example 112, 3-(3-(4-phenoxyphenoxy)azetidin-1-yl)-2-(1H-pyrrol-1-yl)benzoic acid], the inhibition at 50 µM was under 10%.
Still for that read-out and setting: then `COC(=O)c1cccc(N2CC(Oc3ccc(COC4CCOCC4)cc3)C2)c1-n1cccc1` [Example 113, Methyl 2-(1H-pyrrol-1-yl)-3-(3-(4-(((tetrahydro-2H-pyran-4-yl)oxy)methyl)phenoxy)azetidin-1-yl)benzoate], with over 50%; and `COC(=O)c1cccc(N2CC(Oc3ccc(COc4ccccc4)cc3)C2)c1-n1cccc1` [Example 114, Methyl 3-(3-(4-(phenoxymethyl)phenoxy)azetidin-1-yl)-2-(1H-pyrrol-1-yl)benzoate], with 10 to 30%; and `O=C(O)c1cccc(N2CC(Oc3ccc(COc4ccccc4)cc3)C2)c1-n1cccc1` [Example 115, 3-(3-(4-(phenoxymethyl)phenoxy)azetidin-1-yl)-2-(1H-pyrrol-1-yl)benzoic acid], with under 10%.
With `O=C([O-])c1cccc(N2CC(Oc3ccc([N+](=O)[O-])cc3)C2)c1-n1cccc1.[Na+]` [Example 116, Sodium 3-(3-(4-nitrophenoxy)azetidin-1-yl)-2-(1H-pyrrol-1-yl)benzoate], the “C666-1 cell viability single concentration (50 μM) inhibition rate, Ratio* (Inh %)” value is “+ (*Inh %: <10% +)”.
As to `CCCNC(=S)Nc1ccc(OC2CN(c3cccc(C(=O)OC)c3-n3cccc3)C2)cc1` [Example 117, Methyl 3-(3-(4-(3-propylthioureido)phenoxy)azetidin-1-yl)-2-(1H-pyrrol-1-yl)benzoate], the inhibition at 50 µM was over 50%.
Same read-out and setting: then `COC(=O)c1cccc(N2CC(Oc3ccc(NC(=S)Nc4ccc(C(F)(F)F)cc4)cc3)C2)c1-n1cccc1` [Example 118, Methyl 2-(1H-pyrrol-1-yl)-3-(3-(4-(3-(4-(trifluoromethyl)phenyl)thioureido)phenoxy)azetidin-1-yl)benzoate], with over 50%; and `COC(=O)c1cccc(N2CC(Oc3ccc(NC(=S)Nc4ccccc4OC)cc3)C2)c1-n1cccc1` [Example 119, Methyl 3-(3-(4-(3-(2-methoxyphenyl)thioureido)phenoxy)azetidin-1-yl)-2-(1H-pyrrol-1-yl)benzoate], with 10 to 30%; and `COC(=O)c1cccc(N2CC(Oc3ccc(NC(C)=O)cc3)C2)c1-n1cccc1` [Example 120, Methyl 3-(3-(4-acetylaminophenoxy)azetidin-1-yl)-2-(1H-pyrrol-1-yl)benzoate], with 10 to 30%.
On the same count and under the same terms, the result for `CC(=O)Nc1ccc(OC2CN(c3cccc(C(=O)O)c3-n3cccc3)C2)cc1` [Example 121, 3-(3-(4-acetylaminophenoxy)azetidin-1-yl)-2-(1H-pyrrol-1-yl)benzoic acid] reads under 10%; that for `COC(=O)c1cccc(N2CC(Oc3ccc(NC(=O)c4cccs4)cc3)C2)c1-n1cccc1` [Example 122, Methyl 2-(1H-pyrrol-1-yl)-3-(3-(4-(thiophene-2-formamido)phenoxy)azetidin-1-yl)benzoate], 10 to 30%.
The same measure, in the same setting: then `O=C(Nc1ccc(OC2CN(c3cccc(C(=O)O)c3-n3cccc3)C2)cc1)c1cccs1` [Example 123, 2-(1H-pyrrol-1-yl)-3-(3-(4-(thiophene-2-formamido)phenoxy)azetidin-1-yl)benzoic acid], with under 10%.
Take `COC(=O)c1cccc(N2CC(Oc3ccc(N(S(C)(=O)=O)S(C)(=O)=O)cc3)C2)c1-n1cccc1` [Example 124, Methyl 3-(3-(4-(N-(mesyl)methylsulfonamido)phenoxy)azetidin-1-yl)-2-(1H-pyrrol-1-yl)benzoate]: the inhibition at 50 µM lay in the range of 10 to 30%.
The same measure, in the same setting: then `CS(=O)(=O)Nc1ccc(OC2CN(c3cccc(C(=O)O)c3-n3cccc3)C2)cc1` [Example 125, 3-(3-(4-(methylsulfonamido)phenoxy)azetidin-1-yl)-2-(1H-pyrrol-1-yl)benzoic acid], with under 10%.
On to `COC(=O)c1cccc(N2CC(Oc3ccc(NS(=O)(=O)C4CC4)cc3)C2)c1-n1cccc1` [Example 126, Methyl 3-(3-(4-(cyclopropylsulfonamido)phenoxy)azetidin-1-yl)-2-(1H-pyrrol-1-yl)benzoate], for which the inhibition at 50 µM is over 50%.
For `O=C(O)c1cccc(N2CC(Oc3ccc(NS(=O)(=O)C4CC4)cc3)C2)c1-n1cccc1` [Example 127, 3-(3-(4-(cyclopropylsulfonamido)phenoxy)azetidin-1-yl)-2-(1H-pyrrol-1-yl)benzoic acid], the inhibition at 50 µM was under 10%.
Still for that read-out and setting: then `COC(=O)c1cccc(N2CC(Oc3ccc(NC(=O)Nc4ccc(Cl)cc4)cc3)C2)c1-n1cccc1` [Example 128, Methyl 3-(3-(4-(3-(4-chlorophenyl)ureido)phenoxy)azetidin-1-yl)-2-(1H-pyrrol-1-yl)benzoate], with under 10%; and `O=C(Nc1ccc(Cl)cc1)Nc1ccc(OC2CN(c3cccc(C(=O)O)c3-n3cccc3)C2)cc1` [Example 129, 3-(3-(4-(3-(4-chlorophenyl)ureido)phenoxy)azetidin-1-yl)-2-(1H-pyrrol-1-yl)benzoic acid], with under 10%.
In the case of `COC(=O)c1cccc(N2CC(Oc3ccc(NC(=O)NC4CCCCC4)cc3)C2)c1-n1cccc1` [Example 130, Methyl 3-(3-(4-(3-cyclohexylureido)phenoxy)azetidin-1-yl)-2-(1H-pyrrol-1-yl)benzoate], the inhibition at 50 µM was under 10%.
Same read-out and setting: the result for `O=C(Nc1ccc(OC2CN(c3cccc(C(=O)O)c3-n3cccc3)C2)cc1)NC1CCCCC1` [Example 131, 3-(3-(4-(3-cyclohexylureido)phenoxy)azetidin-1-yl)-2-(1H-pyrrol-1-yl)benzoic acid] reads under 10%.
Still for that read-out and setting: then `CCCCCCNC(=O)Nc1ccc(OC2CN(c3cccc(C(=O)OC)c3-n3cccc3)C2)cc1` [Example 132, Methyl 3-(3-(4-(3-hexylureido)phenoxy)azetidin-1-yl)-2-(1H-pyrrol-1-yl)benzoate], with under 10%; and `COC(=O)c1cccc(N2CC(Oc3ccc(NC(=O)Nc4cccc(Cl)c4)cc3)C2)c1-n1cccc1` [Example 133, Methyl 3-(3-(4-(3-(3-chlorophenyl)ureido)phenoxy)azetidin-1-yl)-2-(1H-pyrrol-1-yl)benzoate], with over 50%.
Consider `O=C(Nc1ccc(OC2CN(c3cccc(C(=O)O)c3-n3cccc3)C2)cc1)Nc1cccc(Cl)c1` [Example 134, 3-(3-(4-(3-(3-chlorophenyl)ureido)phenoxy)azetidin-1-yl)-2-(1H-pyrrol-1-yl)benzoic acid], for which the inhibition at 50 µM lay in the range of 10 to 30%.
With `COC(=O)c1cccc(N2CC(Oc3ccc(NC(=O)Nc4ccccc4Cl)cc3)C2)c1-n1cccc1` [Example 135, Methyl 3-(3-(4-(3-(2-chlorophenyl)ureido)phenoxy)azetidin-1-yl)-2-(1H-pyrrol-1-yl)benzoate], the inhibition at 50 µM was under 10%.
Still for that read-out and setting: the result for `O=C(Nc1ccc(OC2CN(c3cccc(C(=O)O)c3-n3cccc3)C2)cc1)Nc1ccccc1Cl` [Example 136, 3-(3-(4-(3-(2-chlorophenyl)ureido)phenoxy)azetidin-1-yl)-2-(1H-pyrrol-1-yl)benzoic acid] reads under 10%.
